Reference: patent US20180179166A1, “SMALL MOLECULE INHIBITORS OF GP120-MEDIATED HIV INFECTION AND METHODS OF USE” (ViroCarb Inc., priority 2014, published 2018)
Like-named read-outs stand apart in the source and are kept apart here.

Columns and labels:
[1] = tested on: HIV-BaL virus (R5 tropism); assay: Protocol 3: inhibition of HIV-1 in TZM-bl reporter cells, luciferase, R5 virus; assay type: cell-based; conditions: Human immunodeficiency virus 1, BAL, read-out: percent inhibitory activity against R5; for inhibition at 200 µM: 200 μM compound
Description: (§1) HIV-BaL virus (R5 tropism) and HIV-1 IIIb virus (X4 tropism) were pretreated with a given compound dissolved in DMSO to a final concentration of 100-200 μM for 1 hr at 37° C. in 96 well tissue culture plates. The TZM-bl HIV reporter cell line (1×10^4/well) in 100 ul DMEM is then added to each well and the 96 well tissue culture plates are incubated at 37° C. in 5% CO2 incubator.
(§2) TZM-bl cells were obtained from the NIH AIDS Reagent Program (Germantown Md., USA). TZM-bl, previously designated JC53-bl (clone 13) is a HeLa cell line. The parental cell line (JC.53) stably expresses large amounts of CD4 and CCR5. The TZM-bl cell line was generated from JC.53 cells by introducing separate integrated copies of the luciferase and ß-galactosidase genes under control of the HIV-1 promoter. The TZM-bl cell line is highly sensitive to infection with diverse isolates of HIV-1. The TZM-bl indicator cell line enables simple and quantitative analysis of HIV using either ß-gal or luciferase as a reporter. It is maximally sensitive to HIV infection by including DEAE-dextran in the infection medium. […] Further information about TZM-bl cells can be found in U.S. Pat. No. 6,797,462, issued to Tranzyme Pharma.
(§3) After 48 hours, half of the medium was removed and replaced with commercially available reagents that contain lysing buffer and substrate for luciferase. After 2 minutes of lysis and incubation, the luciferase activity of the TZM-bl cell is read using a commercial luminometer. The readout is translated as relative light units (RLU).

[2] = tested on: HIV-1 IIIb virus (X4 tropism); assay: Protocol 3: inhibition of HIV-1 in TZM-bl reporter cells, luciferase, X4 virus; assay type: cell-based; conditions: Human immunodeficiency virus 1, IIIB, read-out: percent inhibitory activity against X4; for inhibition at 200 µM: 200 μM compound
Description: as §1, §2, §3

JR-FL-R5 virus = assay: Example 6: U87.CD4.CCR5 cells infected with replication-deficient luciferase HIV strain; assay type: cell-based; conditions: Human immunodeficiency virus 1, U87/CD4/CCR5, 48 h, read-out: % HIV inhibitory activity
Description: Methods. U87.CD4.CCR5 cells (2.5×10^4/well) were seeded overnight and then infected with a replication-deficient HIV strain containing a luciferase insertion in the nef gene (JR-FL-R5 virus). JR-FL-R5 virus was pre-incubated with each compound for 1 hour prior to infection. After two days, the cells were washed, lysed and measured for luciferase activity, which is indicative of viral integration and/or transcription. Compounds were tested in quadruplicates.

[3] = tested on: HIV-1IIIB virus (X4 tropism); assay: Protocol 1: inhibition of HIV-1 in Jurkat T-cells, p24gag ELISA; assay type: cell-based; conditions: read-out: percent inhibitory activity
Description: HIV-1IIIB virus (X4 tropism) was pretreated with a control solution of DMSO or a given compound dissolved in DMSO to a final concentration of 100 μM for 1 hr at 37° C. Pretreated HIV-1 virus was then added (100 μl of 0.1 MOI) to 0.5×10^6 Jurkat (JKT C) T-cells in 100 μl RPMI media and incubated at 37° C. for an additional 1 hr with occasional mixing.
After 1 hour, the cells were centrifuged at 1000 rpm for 5 minutes and the cell pellet washed wash thrice with 2 ml Ca^2+ Mg^2+ free PBS. After the last wash, the cells were resuspended in medium and transferred to 12-well tissue culture plates and placed at 37° C.
On days 2 and 5 of culture, 0.5 ml aliquots of culture supernatant is collected and replaced with 0.5 ml of fresh medium. Aliquots are stored at −80° C. until ready for p24gag ELISA. ELISA for p24gag was done using ELISA plates from Zeptometrix using a standard protocol.

[4] = tested on: HIV-1 BaL virus (R5 tropism); assay: Protocol 2: inhibition of HIV-1 in PBMC, virus pre-treated with compound, p24gag ELISA; assay type: cell-based; conditions: Human immunodeficiency virus 1, 144 h, 100 μM compound, HIV-1 BaL (R5), day 6, read-out: percent inhibitory activity
Description: The protocol involves PBMCs which were purified by centrifugation at 500 g using Ficoll-Paque™ reagent. The cells were re-suspended in RPMI (10% FBS, 2 ug/ml PHA, 20 U/ml of IL-2) and incubated at 37° C. in 5% CO2 for 3 days.
HIV-1 BaL virus (R5 tropism) was pre-treated with a control solution of DMSO or a given compound dissolved in DMSO to a final concentration of 20-100 μM for 1 hour at 37° C. Pretreated HIV-1 viruses were then added (100 μl of 0.1 MOI) to 5×10^5 PBMCs in 100 μl RPMI media and then incubated at 37° C. for an additional 1 hour with occasional mixing. After 1 hour, the cells were centrifuged at 1000 rpm for 5 minutes and the cell pellet washed wash thrice with 2 ml Ca^2+ Mg^2+ free PBS.
After the last wash, the cells are re-suspended in medium and transferred to 12-well tissue culture plates and place at 37° C.
On day 6 of culture, 0.5 ml aliquots of culture supernatant were collected. Aliquots were stored at −80° C. until ready for p24gag ELISA. ELISA for p24gag was done using ELISA plates from Zeptometrix using a standard protocol.

[5] = tested on: HIV-BaL virus (R5 tropism); assay: Protocol 4: inhibition of HIV-1 in U87.CD4.CCR5 cells, p24gag ELISA; assay type: cell-based; conditions: Human immunodeficiency virus 1, 96 h, day 4 post-infection, read-out: percent inhibitory activity; for inhibition at 20 µM: 20 μM compound
Description: U87.CD4.CCR5 cell lines (5×10^4/well) were seeded in 24 well plates overnight. HIV-BaL virus (R5 tropism) was pretreated with a control solution of DMSO or a given compound dissolved in DMSO to a final concentration of 20-200 μM for 1 hr at 37° C.
Pretreated HIV-1 virus was then added (100 μl of 0.1 MOI) to pre-plated U87.CD4.CCR5 cells in 200 μl DMEM media and then incubated at 37° C. for an additional 1 hour with occasional mixing.
After 1 hour, the cells in each well were washed with 1 ml Ca^2+ Mg^2+ free PBS three times. After the last wash, 1 ml of DMEM was added to each well. On day 4 post-infection, 0.2 ml aliquots of culture supernatant was collected. Aliquots were stored at −80° C. until ready for p24gag ELISA. ELISA for p24gag was done using ELISA plates from Zeptometrix using a standard protocol.

[6] = tested on: HIV-1IIIB virus (X4 tropism); assay: Protocol 1: inhibition of HIV-1 in Jurkat T-cells, p24gag ELISA; assay type: cell-based; conditions: Human immunodeficiency virus 1, 20 μM compound, HIV-1IIIB (X4), read-out: percent inhibitory activity
HIV BaL = assay: Example 5: HIV inhibition in human PBMC infected first, then treated with compound; assay type: cell-based, HIV-1; conditions: read-out: % HIV inhibitory activity
Description: In this Example, Compounds #32 and #38 were tested using human peripheral blood mononuclear cells (PBMC). The protocol used is the same as that of Example 2—Protocol 2, delineated in detail, above.
Methods. Briefly, 5×10^5 activated PBMCs were used per well in a 12-well tissue culture plate. The PBMCs were infected with HIV BaL for 1 hour and washed 2× with RPMI medium. The PBMCs were then mixed with compound #32 or #38 at concentrations of 6.0 μM, 25 μM or 100 μM, with solutions containing 20U/m1 of IL-2.
At day 3-post infection, 500 μl of fresh medium containing appropriate concentration of compounds were added. The supernatants were harvested at day 8. The level of HIV infection was determined as described in protocol 2.

[7] = 100 μM compound, TZM-bl cells, 48 hours
[8] = Human immunodeficiency virus 1, Jurkat
[9] = Human immunodeficiency virus 1, 100 μM compound, HIV-1IIIB (X4), Jurkat T-cells
[10] = Human immunodeficiency virus 1, BAL, PBMC, 192 h

SMILES: O=C(CSc1nnc(O)nc1O)N/N=C/c1ccc(O)c([N+](=O)[O-])c1 [#41]
- inhibition at 100 µM [1, 7]: 14%
- inhibition at 100 µM [2, 7]: 10%

SMILES: O=C(Cn1c(-c2ccccn2)nc2ccccc21)N/N=C/C=C/c1ccccc1 [#51]
- inhibition at 0.05 µM (JR-FL-R5 virus): 22%

SMILES: Nc1cc(=O)[nH]c(SCC(=O)Nc2ccc([N+](=O)[O-])cc2)n1 [#27]
- inhibition at 100 µM [3, 8]: 20%

SMILES: CCOC(=O)c1ccc(/C=N/NC(=O)CSc2nnc(O)nc2O)nc1 [#43]
- inhibition at 100 µM [1, 7]: 12%
- inhibition at 100 µM [2, 7]: 16%

SMILES: O=C(CSc1nnc(O)nc1O)N/N=C/c1ccc(Br)cc1 [#39]
- inhibition at 100 µM [3, 9]: 32%
- inhibition at 100 µM [1, 7]: 15%
- inhibition at 100 µM [2, 7]: 15%

SMILES: O=C(Cc1nnc(O)nc1O)N/N=C/C=C/c1ccccc1 [#48]
- inhibition at 0.05 µM (JR-FL-R5 virus): 28%

SMILES: O=C(CSc1nnc(O)nc1O)N/N=C/c1ccc(C(=O)O)cc1 [#3]
- inhibition at 100 µM [3, 9]: 71%
- inhibition at 100 µM [4]: 34%

SMILES: COC(=O)c1cnc(NC(=O)CSc2nc(N)cc(=O)[nH]2)cn1 [#31]
- inhibition at 20 µM [5]: 21%

SMILES: Nc1cc(=O)[nH]c(SCCC(=O)NCc2ccc(C(=O)O)cc2)n1 [#36]
- inhibition at 20 µM [5]: 7%
- inhibition at 20 µM [6]: 50%

SMILES: Nc1cc(=O)[nH]c(SCC(=O)Nc2ccc(C(=O)O)cc2)n1 [#2]
- inhibition at 100 µM [3, 9]: 88%
- inhibition at 100 µM [4]: 30%

SMILES: CCOC(=O)c1ccc(NC(=O)CSc2nc(N)cc(=O)[nH]2)nc1 [#29]
- inhibition at 20 µM [5]: 24%
- inhibition at 20 µM [6]: 75%

SMILES: O=C(CC1CCS(=O)(=O)C1)N/N=C/C=C/c1ccccc1 (centres unmarked) [#49]
- inhibition at 0.05 µM (JR-FL-R5 virus): 45%

SMILES: O=C(CSc1nnc(O)nc1O)N/N=C/C=C/c1ccccc1 [#38]
- inhibition at 100 µM [3, 8]: 44%
- inhibition at 100 µM ([1]; TZM-bl, 48 h): 73%
- inhibition at 100 µM ([2]; TZM-bl, 48 h): 69%
- inhibition at 6 µM (HIV BaL; [10]): 70%
- inhibition at 25 µM (HIV BaL; [10]): 90%
- inhibition at 100 µM (HIV BaL; [10]): 100%
- inhibition at 2 µM (JR-FL-R5 virus): 30%

SMILES: CCOC(=O)Cc1ccc(NC(=O)CSc2nc(N)cc(=O)[nH]2)cc1 [#33]
- inhibition at 20 µM [5]: 27%

SMILES: Nc1cc(=O)[nH]c(SCC(=O)Nc2ccc(C(=O)O)cn2)n1 [#28]
- inhibition at 20 µM [5]: 27%

SMILES: O=C(CSc1nnc(O)nc1O)N/N=C/c1cccnc1 [#40]
- inhibition at 100 µM [1, 7]: 71%
- inhibition at 100 µM [2, 7]: 57%

SMILES: O=C(CSc1nnc(O)nc1O)N/N=C/c1ccc(-c2nccs2)cn1 [#47]
- inhibition at 100 µM [1, 7]: 27%
- inhibition at 100 µM [2, 7]: 29%

SMILES: O=C(CSc1nnc(O)nc1O)N/N=C/c1ccccn1 [#37]
- inhibition at 100 µM [3, 9]: 45%
- inhibition at 200 µM ([5]; 200 μM compound): 28%

SMILES: Nc1cc(=O)[nH]c(SCC(=O)Nc2ccc(CC(=O)O)cc2)n1 [#32]
- inhibition at 200 µM ([1]; TZM-bl cells, 48 hours): 94%
- inhibition at 200 µM ([2]; TZM-bl cells, 48 hours): 61%
- inhibition at 6 µM (HIV BaL; Human immunodeficiency virus 1, 192 h, 6.0 μM compound, human PBMC, HIV BaL, day 8): 54%
- inhibition at 25 µM (HIV BaL; Human immunodeficiency virus 1, 192 h, 25 μM compound, human PBMC, HIV BaL, day 8): 65%
- inhibition at 100 µM (HIV BaL; Human immunodeficiency virus 1, 192 h, 100 μM compound, human PBMC, HIV BaL, day 8): 82%
- inhibition at 2 µM (JR-FL-R5 virus): 32%
- inhibition at 20 µM [6]: 80%

SMILES: Nc1cc(=O)[nH]c(SCC(=O)Nc2ccc(F)c(Cl)c2)n1 [#25]
- inhibition at 100 µM [3, 8]: 18%

SMILES: Nc1cc(=O)[nH]c(SCCC(=O)Nc2ccc(C(=O)O)cc2)n1 [#34]
- inhibition at 200 µM ([1]; TZM-bl cells, 48 hours): 61%
- inhibition at 200 µM ([2]; TZM-bl cells, 48 hours): 62%
- inhibition at 20 µM [5]: 33%

SMILES: COC(=O)c1ccc(NC(=O)CCSc2nc(N)cc(=O)[nH]2)cc1 [#35]
- inhibition at 20 µM [5]: 27%

SMILES: O=C(CSc1nnc(O)nc1O)N/N=C/c1ccc(-c2nn[nH]n2)cn1 [#44]
- inhibition at 20 µM [5]: 10%

SMILES: CCOC(=O)c1cnc(SCC(=O)Nc2cccc(C(=O)O)c2)nc1N [#1]
- inhibition at 100 µM [3, 9]: 3%

SMILES: O=C(CSc1nnc(O)nc1O)N/N=C/c1ccc(C(=O)O)cn1 [#42]
- inhibition at 100 µM [1, 7]: 25%
- inhibition at 100 µM [2, 7]: 25%

SMILES: Nc1cc(=O)[nH]c(SCC(=O)Nc2cnc(C(=O)O)cn2)n1 [#30]
- inhibition at 20 µM [5]: 19%

SMILES: Nc1cc(=O)[nH]c(SCC(=O)Nc2ccc3c(c2)OCO3)n1 [#21]
- inhibition at 100 µM [4]: 40%
